From patent US20220409743A1, “VIRUS-MIMETIC NANOPARTICLES” (UNIVERSITÄT REGENSBURG, priority 2019, published 2022)

Legend:
α-SMA = assay: Western Blot / LSM of fibrosis marker α-SMA after TGF-β; assay type: cell-based; settings: 4 h pre-incubation, 10 ng mL^−1 TGF-β 48 h
Experimental: (§1) Finally, the anti-fibrotic and anti-proliferative potential of a NP-assisted CCG delivery was analyzed. In that regard, mesangial cells were initially incubated for 4 h either with free CCG, CCG-loaded EXPcRGD NPs or control NPs without encapsulated drug. After 4 h, 10 ng mL^−1 of transforming growth factor β (TGF-β) were added for 48 h to induce a fibrotic and hyperproliferative remodeling.

sGC = molecular target: T1, sGC (Rattus norvegicus, UniProt P20595); assay: Western Blot of sGC levels in mesangial cells; assay type: cell-based; settings: 24 h incubation; free CCG 2 μM, NPs 0.2 μM CCG
T1 construct: endogenous in cells; host or cells: mesangial cells
T1 sequence (P20595 1-619): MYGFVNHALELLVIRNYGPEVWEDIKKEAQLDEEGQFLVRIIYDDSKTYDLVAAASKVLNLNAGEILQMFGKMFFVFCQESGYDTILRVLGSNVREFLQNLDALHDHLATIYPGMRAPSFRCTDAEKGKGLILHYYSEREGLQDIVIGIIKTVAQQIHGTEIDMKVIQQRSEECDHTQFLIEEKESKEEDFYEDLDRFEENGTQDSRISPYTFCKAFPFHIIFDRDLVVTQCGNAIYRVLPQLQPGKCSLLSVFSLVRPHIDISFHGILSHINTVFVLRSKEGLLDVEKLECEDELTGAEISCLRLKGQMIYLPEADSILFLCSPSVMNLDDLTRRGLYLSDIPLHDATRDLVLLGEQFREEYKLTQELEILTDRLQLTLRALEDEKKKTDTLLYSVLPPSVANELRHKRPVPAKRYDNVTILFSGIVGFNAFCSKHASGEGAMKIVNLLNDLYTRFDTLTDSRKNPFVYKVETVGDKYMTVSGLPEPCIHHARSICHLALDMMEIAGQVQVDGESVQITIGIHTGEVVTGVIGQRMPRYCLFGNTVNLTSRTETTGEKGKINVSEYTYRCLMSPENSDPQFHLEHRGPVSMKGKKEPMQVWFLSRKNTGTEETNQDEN
T1 sequence (P19686 1-690 partner): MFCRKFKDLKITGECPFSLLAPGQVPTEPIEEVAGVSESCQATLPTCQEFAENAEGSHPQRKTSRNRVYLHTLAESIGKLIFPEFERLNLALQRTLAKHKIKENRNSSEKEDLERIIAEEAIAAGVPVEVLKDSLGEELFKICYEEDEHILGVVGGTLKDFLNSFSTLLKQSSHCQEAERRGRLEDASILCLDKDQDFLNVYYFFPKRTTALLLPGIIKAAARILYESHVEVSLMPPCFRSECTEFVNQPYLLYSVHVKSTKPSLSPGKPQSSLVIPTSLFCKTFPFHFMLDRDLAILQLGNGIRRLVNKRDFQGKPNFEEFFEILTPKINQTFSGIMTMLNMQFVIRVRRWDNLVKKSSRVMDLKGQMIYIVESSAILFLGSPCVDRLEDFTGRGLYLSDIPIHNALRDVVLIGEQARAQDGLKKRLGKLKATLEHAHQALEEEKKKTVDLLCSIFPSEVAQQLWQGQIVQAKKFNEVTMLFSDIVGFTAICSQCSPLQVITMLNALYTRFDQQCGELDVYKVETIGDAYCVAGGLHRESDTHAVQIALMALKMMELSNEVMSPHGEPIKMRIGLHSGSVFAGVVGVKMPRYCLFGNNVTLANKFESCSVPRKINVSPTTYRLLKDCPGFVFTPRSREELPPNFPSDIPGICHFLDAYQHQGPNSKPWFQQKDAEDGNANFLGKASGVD
Experimental: (§2) In the inventors' experimental set-up, CCG was initially encapsulated in hetero-multivalent EXPcRGD NPs. Resulting NPs carried approximately 500-700 CCG molecules per NP (data not shown). In all following experiments, the administration of free cinaciguat at a concentration of 2 μM was compared to CCG-loaded EXPcRGD NPs at a concentration of approximately 0.5 nM (equaling 0.2 μM of CCG) and drug-free EXPcRGD control NPs (FIG. 30). […] CCG-carrying NPs however carried only 10% of respective CCG amount to test a possible drug delivery effect.
To assess the effect of CCG-loaded EXPcRGD NPs on target sGC, mesangial cells were initially incubated for 24 h and protein quantity was assessed using Western Blot analysis.

Collagen I = assay: Western Blot of fibrosis marker Collagen I after TGF-β; assay type: cell-based; settings: 4 h pre-incubation, 10 ng mL^−1 TGF-β 48 h
Experimental: as §1

mesangial cells = assay: Proliferation assay of TGF-β stimulated mesangial cells; assay type: cell-based; settings: 4 h pre-incubation, 10 ng mL^−1 TGF-β 48 h
Experimental: as §1

PGK1-α = assay: Western Blot of VASP phosphorylation (PGK1-α activity); assay type: cell-based; settings: free CCG 2 μM, NPs 0.2 μM CCG
Experimental: To assess PGK1-αactivity, phosphorylation of its substrate vasodilator-stimulated phosphoprotein (VASP) was assessed. […] (n=3; ****P<0.0001; ***P<0.001; **P<0.01; *P<0.05).
as §2

AT1R = molecular target: T2, AT1R (Rattus norvegicus, UniProt P25095); assay: Intracellular calcium measurement (Fura-2): ligand affinity and particle avidity for the AT1R; settings: read-out: IC50, ligand affinity for the AT1R; free ligand; rMCs incubated 30 min prior to stimulation with Ang-II
T2 sequence (P25095 1-359): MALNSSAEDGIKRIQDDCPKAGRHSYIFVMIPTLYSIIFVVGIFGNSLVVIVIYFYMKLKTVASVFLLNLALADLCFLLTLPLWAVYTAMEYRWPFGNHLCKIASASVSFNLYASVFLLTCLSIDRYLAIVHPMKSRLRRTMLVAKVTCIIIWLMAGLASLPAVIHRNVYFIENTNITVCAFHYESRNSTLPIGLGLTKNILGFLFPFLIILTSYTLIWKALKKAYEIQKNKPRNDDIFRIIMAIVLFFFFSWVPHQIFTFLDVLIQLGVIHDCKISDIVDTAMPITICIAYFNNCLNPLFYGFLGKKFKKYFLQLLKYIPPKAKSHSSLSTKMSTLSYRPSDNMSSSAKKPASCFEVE
Experimental: In order to assess the AT1R interaction of the different NP formulations a ratiometric Fura-2 Ca^2+ chelator method was used as previously described [1, 3] using AT1R positive rMCs. For that purpose, rMCs were seeded in T-150 flasks (Corning) and incubated until confluent. […] Cells were incubated for 1 hour, light protected, with gentle agitation (50 rpm). Afterwards, the cell suspension was washed with DPBS by centrifugation (2×, 200 g, 5 min, RT), and resuspended in Leibovitz medium supplemented with 2.5 mM Probenecid at a count of 2 million cells/mL. […] To determine the kinetics of the AT1R interaction (FIG. 3D) the same procedure was used, but the samples were incubated for different time periods (from 5 to 320min) with the cells. The maximal and minimal signal ratio, was determined by stimulating the cells with 0.1% Triton-X 100 or 0.1% Triton-X 100 with 45 mM ethylene glycol-bis(2-aminoethylether)-N,N,N′,N′-tetraacetic acid (EGTA), respectively.

O=C(O)CCCCN(CCc1ccccc1OCc1ccc(CCc2ccccc2)cc1)Cc1ccc(C(=O)O)cc1 [CCG, Cinaciguat]
α-SMA levels compared to the TGF-β control (α-SMA): drastic reduction
sGC levels (sGC): substantial increase in sGC levels
Collagen I levels compared to the TGF-β control (Collagen I): drastic reduction
Effect on TGF-β induced hyperproliferation (mesangial cells): considerably decreased this effect
P-VASP/VASP ratio (PGK1-α): considerable increase in P-VASP/VASP ratio

angiotensin-I (DRVYIHPFHL; Angiotensin-1; UniProt P01019 25-34, looked up) [Ang-I]
IC50 (AT1R): 900 ± 600 nM
